From patent US8785468B2, “Phenylalanine amide derivatives useful for treating insulin-related diseases and conditions” (Amgen Inc., priority 2009, dated 2014)
Counter-ions that a name gives are not always drawn.

Molecular target: T1, human receptor found in pancreatic islet cells (Homo sapiens, UniProt Q7Z601)
T1 sequence (Q7Z601 1-462): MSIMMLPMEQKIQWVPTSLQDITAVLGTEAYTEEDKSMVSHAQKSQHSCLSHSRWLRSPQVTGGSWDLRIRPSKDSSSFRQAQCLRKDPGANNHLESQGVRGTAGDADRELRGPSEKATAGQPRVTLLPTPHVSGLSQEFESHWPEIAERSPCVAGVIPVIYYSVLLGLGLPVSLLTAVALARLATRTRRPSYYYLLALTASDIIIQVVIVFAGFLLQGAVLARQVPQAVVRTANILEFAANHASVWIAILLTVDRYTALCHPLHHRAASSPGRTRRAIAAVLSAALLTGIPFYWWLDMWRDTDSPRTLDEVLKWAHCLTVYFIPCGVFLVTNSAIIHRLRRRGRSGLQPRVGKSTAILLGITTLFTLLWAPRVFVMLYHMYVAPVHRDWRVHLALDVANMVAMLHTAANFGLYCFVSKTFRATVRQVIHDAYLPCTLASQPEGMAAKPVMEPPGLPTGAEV
Experiment: Activation of intracellular IP3 signaling in transfected cells (Activation Assay)
Format: cell-based
Details: calculated from IP3 concentration measurements in cells transfected with the human receptor
Method: Table 12 provides exemplary compounds that were prepared and assessed, following protocols known to those of skilled in the art, for activation of intracellular inositol trisphosphate (IP3) signaling pathways that lead to elevation of intracellular calcium concentration. EC50 values provided in Table 12 were calculated from IP3 concentration measurements in cells transfected with a human receptor found in pancreatic islet cells, inter alia.

| EC50 [nM] | Compound |
| --- | --- |
| 1000 to 10000 | O=C(O)c1cc(NC(=O)[C@H](Cc2ccccc2)NCc2cn[nH]c2)cc(-c2ccncc2)c1 [Example 45.4, (S)-3-(2-((1H-Pyrazol-4-yl)methylamino)-3-phenylpropanamido)-5-(pyridin-4-yl)benzoic acid] |
| 100 to 1000 | COc1ncc(-c2cn[nH]c2)cc1NC(=O)[C@H](Cc1ccccc1)NCc1ccccn1 [Example 15.2, (2S)—N-(2-methoxy-5-(1H-pyrazol-4-yl)pyridin-3-yl)-3-phenyl-2-(pyridin-2-ylmethylamino)propanamide] |
| 100 to 1000 | COc1ncc(-c2ccnc(C)c2)cc1NC(=O)[C@H](Cc1ccccc1)NCc1ccccn1 [Example 41.3, (2S)—N-(2-Methoxy-5-(2-methylpyridin-4-yl)pyridin-3-yl)-3-phenyl-2-(pyridin-2-ylmethylamino)propanamide] |
| 1000 to 10000 | O=C(Nc1cccc(-c2ccncc2)c1)[C@H](Cc1ccccc1)NCc1cnco1 [Example 34.15, (S)-2-(Oxazol-5-ylmethylamino)-3-phenyl-N-(3-(pyridin-4-yl)phenyl)propanamide] |
| < 50 | CCn1nc(-c2ccnc(NC)c2)cc1NC(=O)[C@H](Cc1ccc(F)cc1)NCc1ccc(F)cn1 [Example 31.3, (2S)—N-(1-Ethyl-3-(2-(methylamino)pyridin-4-yl)-1H-pyrazol-5-yl)-3-(4-fluorophenyl)-2-((5-fluoropyridin-2-yl)methylamino)propanamide] |
| < 50 | CNc1cc(-c2cc(NC(=O)[C@H](Cc3ccc(F)cc3)NCc3cscn3)[nH]n2)ccn1 [Example 18.1, (2S)-3-(4-Fluorophenyl)-N-(3-(2-(methylamino)pyridin-4-yl)-1H-pyrazol-5-yl)-2-(thiazol-4-ylmethylamino)propanamide] |
| 100 to 1000 | CC(N[C@@H](Cc1ccccc1)C(=O)Nc1cccc(-c2ccncc2)c1)c1cscn1 (stereo partly drawn) [Example 34.19, (2S)-3-Phenyl-N-(3-(pyridin-4-yl)phenyl)-2-(1-(thiazol-4-yl)ethylamino)propanamide] |
| < 50 | CNc1cc(-c2cc(NC(=O)[C@H](Cc3ccc(F)cc3)NCc3cc[nH]n3)n(C)n2)ccn1 [Example 23.2, (2S)-2-((1H-Pyrazol-3-yl)methylamino)-3-(4-fluorophenyl)-N-(1-methyl-3-(2-(methylamino)pyridin-4-yl)-1H-pyrazol-5-yl)propanamide] |
| 50 to 100 | COC(=O)c1cc(-c2ccncc2)cc2c1CCN2C(=O)[C@H](Cc1ccc(F)cc1)NCc1cc[nH]n1 [Example 54.6, (S)-Methyl 1-(2-((1H-pyrazol-3-yl)methylamino)-3-(4-fluorophenyl)propanoyl)-6-(pyridin-4-yl)indoline-4-carboxylate] |
| 1000 to 10000 | CC(C)N[C@@H](Cc1ccccc1)C(=O)Nc1cccc(-c2ccncc2)c1 [Example 34.13, (S)-2-(Isopropylamino)-3-phenyl-N-(3-(pyridin-4-yl)phenyl)propanamide] |

Second part, the compound before the results:

| Compound | EC50 [nM] |
| --- | --- |
| NC(=O)CNC(=O)c1cc(-c2ccncc2)cc2c1CCN2C(=O)[C@H](Cc1ccccc1)NCc1cscn1 [Example 71, (S)—N-(2-Amino-2-oxoethyl)-1-(3-phenyl-2-(thiazol-4-ylmethylamino)propanoyl)-6-(pyridin-4-yl)indoline-4-carboxamide] | 50 to 100 |
| COc1ncc(-c2cc[nH]n2)cc1NC(=O)[C@H](Cc1ccccc1)NCc1cscn1 [Example 14.3, (2S)—N-(2-methoxy-5-(1H-pyrazol-3-yl)pyridin-3-yl)-3-phenyl-2-(thiazol-4-ylmethylamino)propanamide] | 50 to 100 |
| CNc1cc(-c2cc(NC(=O)[C@H](Cc3ccc(F)cc3)NCc3cscn3)n(CCO)n2)ccn1 [Example 30, (2S)-3-(4-Fluorophenyl)-N-(1-(2-hydroxyethyl)-3-(2-(methylamino)pyridin-4-yl)-1H-pyrazol-5-yl)-2-(thiazol-4-ylmethylamino)propanamide] | 50 to 100 |
| O=C(Nc1nnc(-c2ccncc2)s1)[C@H](Cc1cccc(F)c1)NCc1cscn1 [Example 1.6, (S)-3-(3-fluorophenyl)-N-(5-(pyridin-4-yl)-1,3,4-thiadiazol-2-yl)-2-(thiazol-4-ylmethylamino)propanamide] | 50 to 100 |
| COc1ncc(-c2cc[nH]n2)cc1NC(=O)[C@H](Cc1ccccc1)NC1(c2cscn2)CC1 [Example 14.2] | 100 to 1000 |
| Nc1cc(-c2cccc(NC(=O)[C@H](Cc3ccccc3)NCc3cscn3)c2)ccn1 [Example 36, (2S)—N-(3-(2-Aminopyridin-4-yl)phenyl)-3-phenyl-2-(thiazol-4-ylmethylamino)propanamide] | 100 to 1000 |
| O=C(Nc1cc(-c2ccncc2)no1)[C@H](Cc1ccc(Cl)cc1)NCc1cscn1 [Example 3.1, (S)-3-(4-Chlorophenyl)-N-(3-(pyridin-4-yl)isoxazol-5-yl)-2-(thiazol-4-ylmethylamino)propanamide] | 100 to 1000 |
| Cn1ncnc1-c1cc(-c2ccncc2)cc2c1CCN2C(=O)[C@H](Cc1ccccc1)NCc1cscn1 [Example 61, (2S)-1-(4-(2-Methyl-2H-1,2,4-triazol-3-yl)-6-(pyridin-4-yl)indolin-1-yl)-3-phenyl-2-(thiazol-4-ylmethylamino)propan-1-one] | 1000 to 10000 |
| O=C(Nc1nnc(-c2ccncc2)[nH]1)[C@H](Cc1ccccc1)NCc1cscn1 [Example 2, (S)-3-Phenyl-N-(5-(pyridin-4-yl)-4H-1,2,4-triazol-3-yl)-2-(thiazol-4-ylmethylamino)propanamide] | 1000 to 10000 |
| Cn1cc(-c2ccc3c(c2)N(C(=O)[C@@H](N)Cc2ccccc2)CC3)cn1 [Example 82, (2S)-2-Amino-1-(6-(1-methyl-1H-pyrazol-4-yl)indolin-1-yl)-3-phenylpropan-1-one hydrochloride] | 1000 to 10000 |
| COc1ccc(NC(=O)[C@H](Cc2ccccc2)NCc2cscn2)cc1-c1ccncc1 [Example 38, (S)—N-(4-Methoxy-3-(pyridin-4-yl)phenyl)-3-phenyl-2-(thiazol-4-ylmethylamino)propanamide] | 100 to 1000 |
| O=C(Nc1cccc(-c2ccccc2)c1)[C@H](Cc1ccccc1)NCc1cscn1 [Example 48] | 100 to 1000 |
| NC(=O)c1cc(NC(=O)[C@H](Cc2ccccc2)NCc2cscn2)cc(-c2ccncc2)c1 [Example 47, (S)-3-(3-phenyl-2-(thiazol-4-ylmethylamino)propanamido)-5-(pyridin-4-yl)benzamide] | 50 to 100 |
| O=C(Nc1cnc(-c2ccncc2)s1)[C@H](Cc1ccccc1)NCc1cscn1 [Example 5.3, (S)-3-Phenyl-N-(2-(pyridin-4-yl)thiazol-5-yl)-2-(thiazol-4-ylmethylamino)-propanamide] | 50 to 100 |
| CC(C)(C(=O)O)c1cc(NC(=O)[C@H](Cc2ccccc2)NC[C@H]2CCCO2)cc(-c2ccncc2)c1 [Example 63.2] | 1000 to 10000 |
| Cc1cc(-c2cc(NC(=O)[C@H](Cc3ccccc3)NCc3ccccn3)cc(OCCN(C)C)c2)ccn1 [Example 76, (2S)—N-(3-(2-(Dimethylamino)ethoxy)-5-(2-methylpyridin-4-yl)phenyl)-3-phenyl-2-(pyridin-2-ylmethylamino)propanamide] | 100 to 1000 |
| COC(=O)C1CN(Cc2cc(NC(=O)[C@H](Cc3ccccc3)NCc3cscn3)cc(-c3ccnc(C)c3)c2)C1 [Example 79] | 100 to 1000 |
| COc1ncc(-c2ccn[nH]2)cc1NC(=O)[C@H](Cc1ccccc1)NC1(c2ccccn2)CC1 [Example 14.1, (2S)—N-(2-methoxy-5-(1H-pyrazol-5-yl)pyridin-3-yl)-3-phenyl-2-(1-(pyridin-2-yl)cyclopropylamino)propanamide] | 100 to 1000 |
